In paper PMC4525288, “Structures of FolT in substrate-bound and substrate-released conformations reveal a gating mechanism for ECF transporters” (Nature Communications, 2015) one finds Kd data, which are given here for one compound.

Experiment [1] has as its target T1, EfFolT (Enterococcus faecalis, UniProt Q837A3).
T1 construct: gene EF_0940; full-length S component without ECF module; N-terminal His6 tag (pET28a, NdeI/XhoI), E. coli BL21(DE3), detergent-purified
T1 sequence (Q837A3 1-179): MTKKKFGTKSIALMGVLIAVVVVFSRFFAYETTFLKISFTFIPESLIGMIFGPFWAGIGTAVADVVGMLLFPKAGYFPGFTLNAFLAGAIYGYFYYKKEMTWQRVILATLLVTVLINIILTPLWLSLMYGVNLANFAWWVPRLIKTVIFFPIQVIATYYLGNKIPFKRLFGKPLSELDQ
Kind of experiment: isothermal titration calorimetry; crystal structure […] A. The note with it: read-out: Dissociation constant/KD. The format is binding.

In experiment [2] the target is T2, EfFolT (Enterococcus faecalis, UniProt Q837A3, Y129A).
T2 construct: gene EF_0940
Kind of experiment: biochemical.

For experiment [3], the target named is T3, EfFolT (Enterococcus faecalis, UniProt Q837A3, K145A).
T3 construct: gene EF_0940
Kind of experiment: biochemical.

Experiment [4] has as its target T4, EfFolT (Enterococcus faecalis, UniProt Q837A3, N117A).
T4 construct: gene EF_0940
Kind of experiment: biochemical.

The target of experiment [5] is T5, EfFolT (Enterococcus faecalis, UniProt Q837A3, F80W).
T5 construct: gene EF_0940
Kind of experiment: biochemical.

For experiment [6], the target named is T6, EfFolT (Enterococcus faecalis, UniProt Q837A3, K36R).
T6 construct: gene EF_0940
Kind of experiment: biochemical.

Experiment [7] deals with T7, EfFolT (Enterococcus faecalis, UniProt Q837A3, T81A).
T7 construct: gene EF_0940
Kind of experiment: biochemical.

Experiment [8] addresses T8, EfFolT (Enterococcus faecalis, UniProt Q837A3, K145T).
T8 construct: gene EF_0940
Kind of experiment: biochemical.

Experiment [9] addresses T9, EfFolT (Enterococcus faecalis, UniProt Q837A3, K36A).
T9 construct: gene EF_0940
Kind of experiment: biochemical.

The target in experiment [10] is T10, EfFolT (Enterococcus faecalis, UniProt Q837A3, T121A).
T10 construct: gene EF_0940
Kind of experiment: biochemical.

The target in experiment [11] is T11, EfFolT (Enterococcus faecalis, UniProt Q837A3, R26A).
T11 construct: gene EF_0940
Kind of experiment: biochemical.

Consider `Nc1nc2ncc(CNc3ccc(C(=O)N[C@@H](CCC(=O)O)C(=O)O)cc3)nc2c(=O)[nH]1` [folate], for which the Kd is 29.8 ± 4.7 nM at EfFolT [1]; 635 ± 33.6 nM at EfFolT [2]; 3.3 ± 0.198 µM on EfFolT [3]; 68.6 ± 6.4 nM on EfFolT [4]; 499 ± 25.8 nM on EfFolT [5]; 91.5 ± 7.5 nM at EfFolT [6]. In addition, the Kd at EfFolT [7] worked out at 813 ± 162 nM; at EfFolT [8] it was 3.69 µM; at EfFolT [9] it was 5.4 µM; on EfFolT [10], 288 ± 21.1 nM; on EfFolT [11], 252 ± 22 nM.
